Laboratory results: patent US7495104B2, “Quinoline or quinazoline derivatives inhibiting auto-phosphorylation of fibroblast growth factor receptors” (Kirin Beer Kabushiki Kaisha, priority 2001, dated 2009)
pIC50: −log10 of the molar value.

The compounds below were run against Bek (Homo sapiens, UniProt P21802) (assay: Inhibitory activity against Bek-autophosphorylation using ELISA method in OCUM-2MD3 cells). Conditions: 1 hr with compound, read-out: IC50 (concentration necessary for inhibiting 50% of Bek-phosphorylation).
Type: cell-based
Method in brief: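 Sandwich ELISA (anti-phosphotyrosine capture, anti-Bek detection, peroxidase, 450 nm) measured Bek autophosphorylation in OCUM-2MD3 lysates after 1 hr compound treatment at 37° C in 0.1% serum medium. IC50 derived by scaling between no-drug (100%) and excess positive control at 1000 nM (0%).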

Sequence of Bek (P21802 431-767 limits assumed): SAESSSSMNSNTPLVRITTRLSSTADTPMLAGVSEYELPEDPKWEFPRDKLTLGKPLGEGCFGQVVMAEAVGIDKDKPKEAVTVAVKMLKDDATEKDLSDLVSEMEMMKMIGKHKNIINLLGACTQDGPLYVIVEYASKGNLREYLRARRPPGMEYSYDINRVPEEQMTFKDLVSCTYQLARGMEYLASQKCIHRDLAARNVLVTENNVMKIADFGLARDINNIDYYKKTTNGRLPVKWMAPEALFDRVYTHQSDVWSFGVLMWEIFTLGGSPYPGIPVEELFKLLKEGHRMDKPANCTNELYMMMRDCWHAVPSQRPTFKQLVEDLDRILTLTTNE

With `COc1cc2c(Oc3ccc(NC(=O)NCCC(C)(C)C)c(Cl)c3)ccnc2cc1OCCC1CCNCC1` [Compound 202, 1-{2-Chloro-4-[6-methoxy-7-(2-piperidin-4-yl-ethoxy)-quinolin-4-yloxy]-phenyl}-3-(3,3-dimethyl-butyl)-urea] as the compound, how does the pIC50 read?
Its pIC50 is 7.55.

`COc1cc2c(Oc3ccc(NC(=O)NCCC(C)(C)C)c(F)c3)ccnc2cc1OCCCCl` [Compound 204, 1-{4-[7-(3-Chloro-propoxy)-6-methoxy-quinolin-4-yloxy]-2-fluoro-phenyl}-3-(3,3-dimethyl-butyl)-urea] was tested. Which pIC50 did it give?
Its pIC50 is 6.63.

How did the pIC50 turn out when `COc1cc2c(Oc3ccc(NC(=O)NCCC(C)(C)C)c(Cl)c3)ccnc2cc1OCCCN1CCOCC1` [Compound 205, 1-{2-Chloro-4-[6-methoxy-7-(3-morpholin-4-yl-propoxy)-quinolin-4-yloxy]-phenyl}-3-(3,3-dimethyl-butyl)-urea] was run?
The pIC50 was 7.59.

`COc1cc2c(Oc3ccc(NC(=O)NCCC(C)(C)C)c(Cl)c3)ccnc2cc1OCC(O)CN1CCOCC1` (stereo not drawn) [Compound 206, 1-{2-Chloro-4-[7-(2-hydroxy-3-morpholin-4-yl-propoxy)-6-methoxy-quinolin-4-yloxy]-phenyl}-3-(3,3-dimethyl-butyl)-urea] was tested. Which pIC50 did it give?
Its pIC50 is 7.73.

With `COc1cc2c(Oc3ccc(NC(=O)NCCC(C)(C)C)c(Cl)c3)ccnc2cc1OCCCN1CCC(C)CC1` [Compound 207, 1-(2-Chloro-4-{6-methoxy-7-[3-(4-methyl-piperidin-1-yl)-propoxy]-quinolin-4-yloxy}-phenyl)-3-(3,3-dimethyl-butyl)-urea] as the compound, how does the pIC50 read?
The pIC50 was 7.22.

`COc1cc2c(Oc3ccc(NC(=O)NCCC(C)(C)C)c(Cl)c3)ccnc2cc1OCCCN1CCC[C@H]1CO` [Compound 208, 1-(2-Chloro-4-{7-[3-(2-hydroxymethyl-pyrrolidin-1-yl)-propoxy]-6-methoxy-quinolin-4-yloxy}-phenyl)-3-(3,3-dimethyl-butyl)-urea] was tested. Which pIC50 did it give?
Its pIC50 is 7.57.

`COc1cc2c(Oc3ccc(NC(=O)NCCC(C)(C)C)c(F)c3)ccnc2cc1OCC(O)CN1CCOCC1` (stereo not drawn) [Compound 209, 1-(3,3-Dimethyl-butyl)-3-{2-fluoro-4-[7-(2-hydroxy-3-morpholin-4-yl-propoxy)-6-methoxy-quinolin-4-yloxy]-phenyl}-urea] was tested. Which pIC50 did it give?
The pIC50 was > 8.00.

How did the pIC50 turn out when `COc1cc2c(Oc3ccc(NC(=O)NCCC(C)(C)C)c(F)c3)ccnc2cc1OCCCN1CCOCC1` [Compound 210, 1-(3,3-Dimethyl-butyl)-3-{2-fluoro-4-[6-methoxy-7-(3-morpholin-4-yl-propoxy)-quinolin-4-yloxy]-phenyl}-urea] was run?
The pIC50 was > 8.00.

How did the pIC50 turn out when `COc1cc2c(Oc3ccc(NC(=O)NCCC(C)(C)C)c(Cl)c3)ccnc2cc1OCCO` [Compound 211, 1-{2-Chloro-4-[7-(2-hydroxy-ethoxy)-6-methoxy-quinolin-4-yloxy]-phenyl}-3-(3,3-dimethyl-butyl)-urea] was run?
The pIC50 was > 8.00.

With `COc1cc2nccc(Oc3ccc(Nc4ccc(C(C)(C)C)cc4)cc3)c2cc1OCCN1CCOCC1` [Compound 212, (4-Tert-butyl-phenyl)-{4-[7-methoxy-6-(2-morpholin-4-yl-ethoxy)-quinolin-4-yloxy]-phenyl}-amine] as the compound, how does the pIC50 read?
The pIC50 was 6.86.

`COc1cc2nccc(Oc3ccc(Nc4ccc(C(C)(C)C)cc4)cc3)c2cc1OCC(O)CN1CCOCC1` (stereo not drawn) [Compound 213, 1-{4-[4-(4-Tert-butyl-phenylamino)-phenoxy]-7-methoxy-quinolin-6-yloxy}-3-morpholin-4-yl-propan-2-ol] was tested. Which pIC50 did it give?
Its pIC50 is 6.90.

`COc1cc2nccc(Oc3ccc(Nc4ccc(C(C)(C)C)cc4)cc3)c2cc1O` [Compound 214, 4-[4-(4-Tert-butyl-phenylamino)-phenoxy]-7-methoxy-quinolin-6-ol] was tested. Which pIC50 did it give?
The pIC50 was 7.58.

With `COC(=O)COc1cc2nccc(Oc3ccc(NC(=O)NCCC(C)(C)C)cc3)c2cc1OC` [Compound 215, Methyl (4-{4-[3-(3,3-dimethyl-butyl)-ureido]-phenoxy}-6-methoxy-quinolin-7-yloxy)-acetate] as the compound, how does the pIC50 read?
Its pIC50 is 6.47.

With `COc1cc2c(Oc3ccc(Nc4ccc(C(C)(C)C)cc4)cc3)ccnc2cc1OCCCN1CCC(O)CC1` [Compound 216, 1-(3-{4-[4-(4-Tert-butyl-phenylamino)-phenoxy]-6-methoxy-quinolin-7-yloxy}-propyl)-piperidin-4-ol] as the compound, how does the pIC50 read?
The pIC50 was 6.76.

How did the pIC50 turn out when `COc1cc2c(Oc3ccc(Nc4ccc(C(C)(C)C)cc4)cc3)ccnc2cc1OCCCN1CCC(CO)CC1` [Compound 217, [1-(3-{4-[4-(4-Tert-butyl-phenylamino)-phenoxy]-6-methoxy-quinolin-7-yloxy}-propyl)-piperidin-4-yl]-methanol] was run?
The pIC50 was 7.39.

With `COc1cc2c(Oc3ccc(Nc4ccc(C(C)(C)C)cc4)cc3)ccnc2cc1OCCCN1CCC(CCO)CC1` [Compound 218, 2-[1-(3-{4-[4-(4-Tert-butyl-phenylamino)-phenoxy]-6-methoxy-quinolin-7-yloxy}-propyl)-piperidin-4-yl]-ethanol] as the compound, how does the pIC50 read?
The pIC50 was 7.02.

How did the pIC50 turn out when `COc1cc2c(Oc3ccc(NC(=O)NCCC(C)(C)C)cc3)ccnc2cc1OCCN1CCC(CCO)CC1` [Compound 219, 1-(3,3-Dimethyl-butyl)-3-[4-(7-{2-[4-(2-hydroxy-ethyl)-piperidin-1-yl]-ethoxy}-6-methoxy-quinolin-4-yloxy)-phenyl]-urea] was run?
Its pIC50 is > 8.00.

How did the pIC50 turn out when `COc1cc2c(Oc3ccc(NC(=O)NCCC(C)(C)C)cc3)ccnc2cc1OCCCN1CCC(CCO)CC1` [Compound 220, 1-(3,3-Dimethyl-butyl)-3-[4-(7-{3-[4-(2-hydroxy-ethyl)-piperidin-1-yl]-propoxy}-6-methoxy-quinolin-4-yloxy)-phenyl]-urea] was run?
Its pIC50 is 7.92.

`COc1cc2c(Oc3ccc(NC(=O)NCCC(C)(C)C)cc3)ccnc2cc1OCC(=O)O` [Compound 221, (4-{4-[3-(3,3-Dimethyl-butyl)-ureido]-phenoxy}-6-methoxy-quinolin-7-yloxy)-acetic acid] was tested. Which pIC50 did it give?
The pIC50 was 6.12.

How did the pIC50 turn out when `COc1cc2nccc(Oc3ccc(NC(=O)NCCC(C)(C)C)cc3)c2cc1OCCN(C)C` [Compound 222, 1-{4-[6-(2-Dimethylamino-ethoxy)-7-methoxy-quinolin-4-yloxy]-phenyl}-3-(3,3-dimethyl-butyl)-urea] was run?
Its pIC50 is 7.61.

How did the pIC50 turn out when `COc1cc2nccc(Oc3ccc(NC(=O)NCCC(C)(C)C)cc3)c2cc1OCCCN1CCOCC1` [Compound 223, 1-(3,3-Dimethyl-butyl)-3-{4-[7-methoxy-6-(3-morpholin-4-yl-propoxy)-quinolin-4-yloxy]-phenyl}-urea] was run?
The pIC50 was 7.30.

With `COc1cc2nccc(Oc3ccc(NC(=O)NCCC(C)(C)C)cc3)c2cc1OCCCN(C)C` [Compound 224, 1-{4-[6-(3-Dimethylamino-propoxy)-7-methoxy-quinolin-4-yloxy]-phenyl}-3-(3,3-dimethyl-butyl)-urea] as the compound, how does the pIC50 read?
The pIC50 was 7.15.

With `COc1cc2nccc(Oc3ccc(NC(=O)NCCC(C)(C)C)cc3)c2cc1OCC(O)CN1CCOCC1` (stereo not drawn) [Compound 225, 1-(3,3-Dimethyl-butyl)-3-{4-[6-(2-hydroxy-3-morpholin-4-yl-propoxy)-7-methoxy-quinolin-4-yloxy]-phenyl}-urea] as the compound, how does the pIC50 read?
Its pIC50 is 7.70.

`COc1cc2nccc(Oc3ccc(NC(=O)NCCC(C)(C)C)cc3)c2cc1OCC(O)CN(C)C` (stereo not drawn) [Compound 226, 1-{4-[6-(3-Dimethylamino-2-hydroxy-propoxy)-7-methoxy-quinolin-4-yloxy]-phenyl}-3-(3,3-dimethyl-butyl)-urea] was tested. Which pIC50 did it give?
The pIC50 was 7.55.

How did the pIC50 turn out when `COc1cc2nccc(Oc3ccc(NC(=O)NCCC(C)(C)C)cc3)c2cc1OCCCCN1CCOCC1` [Compound 227, 1-(3,3-Dimethyl-butyl)-3-{4-[7-methoxy-6-(4-morpholin-4-yl-butoxy)-quinolin-4-yloxy]-phenyl}-urea] was run?
The pIC50 was 7.62.

How did the pIC50 turn out when `COc1cc2nccc(Oc3ccc(NC(=O)NCCC(C)(C)C)cc3)c2cc1OCCCCN(C)C` [Compound 228, 1-{4-[6-(4-Dimethylamino-butoxy)-7-methoxy-quinolin-4-yloxy]-phenyl}-3-(3,3-dimethyl-butyl)-urea] was run?
The pIC50 was 7.41.

With `COc1cc2c(Oc3ccc(Nc4ccc(C(C)C)cc4)cc3)ccnc2cc1OCC(=O)N1CCOCC1` [Compound 229, 2-{4-[4-(4-Isopropyl-phenylamino)-phenoxy]-6-methoxy-quinolin-7-yloxy}-1-morpholin-4-yl-ethanone] as the compound, how does the pIC50 read?
The pIC50 was 6.81.

`COc1cc2c(Oc3ccc(NC(=O)NCCC(C)(C)C)c(F)c3)ccnc2cc1OC(=O)N1CCC(N2CCCCC2)CC1` [Compound 230, 4-{4-[3-(3,3-Dimethyl-butyl)-ureido]-3-fluoro-phenoxy}-6-methoxy-quinolin-7-yl [1,4′]bipiperidineyl-1′-carboxylate] was tested. Which pIC50 did it give?
Its pIC50 is 7.49.

`COc1cc2nccc(Oc3ccc(NC(=O)NCCC(C)(C)C)cc3F)c2cc1OCCCN1CC(C)OC(C)C1` (stereo not drawn) [Compound 231, 1-(3,3-Dimethyl-butyl)-3-(4-{6-[3-(2,6-dimethyl-morpholin-4-yl)-propoxy]-7-methoxy-quinolin-4-yloxy}-3-fluoro-phenyl)-urea] was tested. Which pIC50 did it give?
Its pIC50 is 6.95.

With `COc1cc2c(Oc3ccc(Nc4ccc(C(C)(C)C)cc4)cc3)ccnc2cc1OCCCN1CC(C)OC(C)C1` (stereo not drawn) [Compound 232, (4-Tert-butyl-phenyl)-(4-{7-[3-(2,6-dimethyl-morpholin-4-yl)-propoxy]-6-methoxy-quinolin-4-yloxy}-phenyl)-amine] as the compound, how does the pIC50 read?
The pIC50 was 6.99.

How did the pIC50 turn out when `COc1cc2c(Oc3ccc(Nc4ccc(C(C)(C)C)cc4)cc3)ccnc2cc1OCCCN1CC(C)CC(C)C1` (stereo not drawn) [Compound 233, (4-Tert-butyl-phenyl)-(4-{7-[3-(3,5-dimethyl-piperidin-1-yl)-propoxy]-6-methoxy-quinolin-4-yloxy}-phenyl)-amine] was run?
The pIC50 was 6.43.

`COc1cc2c(Oc3ccc(Nc4ccc(C(C)(C)C)cc4)cc3)ccnc2cc1OCCCN1CCC(N2CCCCC2)CC1` [Compound 236, {4-[7-(3-[1,4′]Bipiperidineyl-1 ′-yl-propoxy)-6-methoxy-quinolin-4-yloxy]-phenyl}-(4-tert-butyl-phenyl)-amine] was tested. Which pIC50 did it give?
Its pIC50 is 6.57.

How did the pIC50 turn out when `COc1cc2c(Oc3ccc(Nc4ccc(C(C)(C)C)cc4)cc3)ccnc2cc1OCCCN1CCC(N2CCCC2)CC1` [Compound 237, (4-Tert-butyl-phenyl)-(4-{6-methoxy-7-[3-(4-pyrrolidin-1-yl-piperidin-1-yl)-propoxy]-quinolin-4-yloxy}-phenyl)-amine] was run?
Its pIC50 is 6.68.
